Assay results as given in US11458138B2 (Novartis AG, priority 2017, dated 2022).

Assays:
[1] = test system: Phospho-YAP (Ser127) in JHH-5 cells; assay: pYAP HTRF Assay (JHH-5 cells); type: cell-based; conditions: 2 hours
How it was run: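 JHH-5 cells (24000/well) cultured 24 h at 37 °C in William's E with 10% FBS, then exposed to compounds for 2 h at 37 °C. After lysis, pYAP d2/cryptate antibodies incubated 18 h at room temperature; HTRF ratio 665/620 nm ×10000.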

[2] = test system: Phospho-YAP (SER127) in HaCaT cells; assay: pYAP HTRF Assay (HaCaT Cells); type: cell-based, human; conditions: Homo sapiens, 2 hours
How it was run: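 HaCaT cells at 5500 cells/well were cultured 48 hours at 37° C, then treated with compound for 2 hours. Phospho-YAP (Ser127) was detected by HTRF after an overnight (20 hrs) room-temperature incubation, read as the 665 nm/620 nm ratio.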

LATS1 = LATS1 (Homo sapiens (Human), UniProt O95835); assay: LATS1 biochemical assay (Table 1A, Compound Examples 1-290; method in the earlier part)
rabbit corneal surface = assay: Rabbit model of limbal stem cell deficiency, transplantation of expanded LSCs; type: in vivo; conditions: LSCs expanded in medium comprising the compound, combined with GelMA, delivered via contact lens
From the text: FIG. 7B: Arrow is pointing to absence of keratin 19 staining. […] FIG. 7C: Arrow is pointing to absence of keratin-12 staining. […] FIG. 7D: Arrow is pointing to areas of positive keratin-19 staining.

[3] = test system: YAP nuclear translocation in HaCaT cells; assay: YAP Translocation Assay (HaCaT Cells); type: cell-based, human; conditions: Homo sapiens, 24 hours
How it was run: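 HaCaT cells (20,000/well) in DMEM + 10% FBS were plated overnight at 37° C, then exposed to compound for 24 h at 37° C. Cells were fixed with PFA, permeabilized with 0.1% Triton/1.5% BSA and imaged by high-content imaging.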

limbal stem cells (LSCs) = assay: Differentiation of expanded LSCs into corneal epithelium cells (p63alpha / keratin 12); type: cell-based, human; conditions: transferred to conditions that enable differentiation
From the text: Shown are views where the transition from the p63alpha-positive cell identity to the keratin-12 identity are occurring.
These characteristics can be observed by immunohistochemistry or FACS.

[4] = biological target: Human LATS2 kinase domain protein (Homo sapiens (Human), UniProt Q9NRM7); assay: LATS2 Biochemical Caliper Assay (Compound Examples 1-290); conditions: 400 micromolar ATP
Procedure: Human LATS2 kinase domain protein was purchased from Carnabio (catalogue number 01-124), which harbors the catalytic domain of amino acids 553-1088, and was co-purified with human His-tagged MOBKL1A (NP_775-739). 5 microlitre of enzyme buffer, 100 nL of compounds and 5 microlitre of localising aid buffer were added into 384-well plates. […] The plates were incubated at 25° C. for 3 hours. 40 microlitre of stop buffer with 25 mM EDTA (NanoSyn) was added to each well to terminate the reaction. Localising aids and products were separated electrophoretically using the microfluidic-based Caliper Labchip 3000 Drug Discovery System (Caliper Life Sciences). Plates were read using blue laser excitation and green fluorescence detection and quantified by fluorescence intensity.

[5] = biological target: Human LATS1 kinase domain protein (Homo sapiens (Human), UniProt O95835); assay: LATS1 Biochemical Caliper Assay (Compound Examples 291-335); conditions: Caliper EZ Reader
Procedure: The LATS1 biochemical Caliper assay was performed as following.
Human LATS1 kinase domain protein was purchased from Carnabio (catalogue number 01-123; lot 15CBS-0098D). Human LATS1, catalytic domain [589-1130(end) amino acids of accession number NP_004681.1] was co-expressed as N-terminal GST-fusion protein (90 kDa) with human His-tagged MOBKL1A [1-216(end) amino acids of accession number NP_775739.1] using baculovirus expression system. GST-LATS1 was purified by using glutathione sepharose chromatography. The substrate (Fluo-SGKtide; Peptide for LATS1; lot BS-41067) has the following sequence: 5-Fluo-Nva-[…]-amide (SEQ ID NO: 27) x TFA and was purchased from Biosyntan.
The reaction is performed in reaction buffer containing 50 mM Hepes pH 7,5; 0.02% Tween20; 0.02% BSA; 1 mM DTT; 10 uM Na3VO4 and 10 mM beta-Glycerolphosphat and fresh added 1 mM MgCl2 and qsp H2O.
The substrate solution (2× conc.) in Reaction Buffer contains 300 μM ATP and 4 μM Fluo-SGKtide.
The kinase solution (2× conc.) in Reaction Buffer contains 20 nM LATS1 kinase. 4.5 μL of 2× conc. Kinase solution, 50 nL of 1.8 mM compounds and 4.5 μL of substrate solution were added into 384-well plates black small volume from Greiner and incubated at 32° C. for 1 hour. 15 μL of stop buffer containing 100 mM Hepes pH 7,5; 5% DMSO; 0.1% Coating reagent; 10 mM EDTA and 0.02% Brij35 and qsp H2O to each well to terminate the reaction.
Substrates and products were electrophoretically separated using the microfluidic-based Caliper EZ Reader System (Caliper Life Sciences) using a 12 sipper chip (cat 760404). The separation takes place in Coating Buffer (idem Stop buffer) and containing 0.1% Coating reagent CR3 and 0.5% coating reagent CR8 (Perkin Elmer).
Plates were read using a LED with an excitation at 488 nm and a detection at 520 nm to 5 quantify the fluorescence intensity.

[6] = test system: hepatic progenitor cells (HPC); assay: Mouse Hepatic Progenitor Cell Proliferation Assay; type: cell-based; conditions: 96 h, mean number of nuclei per organoid, 4 days
Procedure: The progenitor cells were isolated from C57Bl/6 wild type mice and expanded as described (Lu, W. Y. et al., Nat. Cell Biol. 17, 971-983 (2015)). Cells are stocked in liquid nitrogen, thawed on need and tested using the following protocol: HPC are harvested from their collagen I coated culture vessel (Corning; cat. Number 354487), counted and assessed for viability using a CEDEX cell counter (Roche). After centrifugation, 12 million cells are re-suspended in 2 ml of William's E Medium (Life Technologies; cat. Number 22551089) supplemented with 10% Fetal Bovine Serum (Amimed; cat. Number 2-01F10-I); 1% Penicillin/Streptomycin (Sigma; cat. Number 15140-122); 17.6 mM of NaHCO3 (Sigma; cat. Number S8761); 20 mM HEPES (Gibco; cat. Number H3375); 10 mM Nicotinamide (Sigma; cat. Number N0636-100); 14 mM glucose (Sigma; cat. Number G7021); 1 mM Sodium Pyruvate (Sigma; cat. Number TMS-005); Insulin Transferrin Selenium (ITS) diluted 100 times from stock solution (Sigma; cat. Number 13148); 100 nM Dexamethasone (Sigma; cat. Number D4902); 0.2 mM ascorbic acid (Sigma; cat. Number A7506-100G); 10 ng/ml recombinant human IL-6 (Preprotech; cat. Number 200-06); 10 ng/ml murine HGF (Preprotech; cat. Number 315-23; Lot. 0711S527); 10 ng/ml murine EGF (Preprotech; cat. Number 315-09; Lot. 0217179-1). Six milliliters of Matrigel (Corning; cat. Number 354277; Lot: 5187006) are added to the cell/media solution, thus the final cell concentration is 1.5 million HPC per milliliter, in 25% culture medium and 75% Matrigel. Five microliter (p1) of the cell/Matrigel suspension are transferred in each well of the clear bottom 96 well assay plate (Corning; cat. Number 356649) using the Star dispenser (Hamilton). […]
Plates are imaged with the CV7000 imager (Yokogawa) at a 10 fold magnification using the bright field lamp (lamp power: 10%; exposure time: 20 ms) and the 405 nanometer laser (laser power: 100%; exposure time 200 ms). Four different images per well were acquired and analyzed with the Yokogawa image analysis software (YAS). […]

Human LATS2 kinase domain protein, sequence (Q9NRM7 553-1088): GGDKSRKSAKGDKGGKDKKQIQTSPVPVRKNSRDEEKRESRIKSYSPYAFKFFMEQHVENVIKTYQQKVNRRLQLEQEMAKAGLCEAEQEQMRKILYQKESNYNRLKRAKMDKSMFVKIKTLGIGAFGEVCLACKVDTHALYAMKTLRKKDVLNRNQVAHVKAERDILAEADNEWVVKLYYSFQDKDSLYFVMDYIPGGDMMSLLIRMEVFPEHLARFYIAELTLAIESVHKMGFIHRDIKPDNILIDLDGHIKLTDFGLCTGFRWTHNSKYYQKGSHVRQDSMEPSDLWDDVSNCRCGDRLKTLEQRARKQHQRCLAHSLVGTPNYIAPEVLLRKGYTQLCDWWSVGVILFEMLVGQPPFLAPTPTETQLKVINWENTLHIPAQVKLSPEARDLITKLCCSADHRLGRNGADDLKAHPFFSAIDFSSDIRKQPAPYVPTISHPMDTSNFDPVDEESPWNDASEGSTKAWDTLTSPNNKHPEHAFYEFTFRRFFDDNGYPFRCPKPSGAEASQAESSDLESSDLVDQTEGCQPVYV
Human LATS2 kinase domain protein, sequence (Q7L9L4 whole entry partner, the tested form may be a part): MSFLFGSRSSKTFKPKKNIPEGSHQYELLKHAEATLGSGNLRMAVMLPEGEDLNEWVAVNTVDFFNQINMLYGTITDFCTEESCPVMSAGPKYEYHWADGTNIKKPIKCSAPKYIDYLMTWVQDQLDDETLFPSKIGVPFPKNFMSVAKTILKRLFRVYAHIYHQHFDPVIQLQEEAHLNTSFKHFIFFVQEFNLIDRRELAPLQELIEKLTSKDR
LATS1, sequence (O95835 whole entry, looked up): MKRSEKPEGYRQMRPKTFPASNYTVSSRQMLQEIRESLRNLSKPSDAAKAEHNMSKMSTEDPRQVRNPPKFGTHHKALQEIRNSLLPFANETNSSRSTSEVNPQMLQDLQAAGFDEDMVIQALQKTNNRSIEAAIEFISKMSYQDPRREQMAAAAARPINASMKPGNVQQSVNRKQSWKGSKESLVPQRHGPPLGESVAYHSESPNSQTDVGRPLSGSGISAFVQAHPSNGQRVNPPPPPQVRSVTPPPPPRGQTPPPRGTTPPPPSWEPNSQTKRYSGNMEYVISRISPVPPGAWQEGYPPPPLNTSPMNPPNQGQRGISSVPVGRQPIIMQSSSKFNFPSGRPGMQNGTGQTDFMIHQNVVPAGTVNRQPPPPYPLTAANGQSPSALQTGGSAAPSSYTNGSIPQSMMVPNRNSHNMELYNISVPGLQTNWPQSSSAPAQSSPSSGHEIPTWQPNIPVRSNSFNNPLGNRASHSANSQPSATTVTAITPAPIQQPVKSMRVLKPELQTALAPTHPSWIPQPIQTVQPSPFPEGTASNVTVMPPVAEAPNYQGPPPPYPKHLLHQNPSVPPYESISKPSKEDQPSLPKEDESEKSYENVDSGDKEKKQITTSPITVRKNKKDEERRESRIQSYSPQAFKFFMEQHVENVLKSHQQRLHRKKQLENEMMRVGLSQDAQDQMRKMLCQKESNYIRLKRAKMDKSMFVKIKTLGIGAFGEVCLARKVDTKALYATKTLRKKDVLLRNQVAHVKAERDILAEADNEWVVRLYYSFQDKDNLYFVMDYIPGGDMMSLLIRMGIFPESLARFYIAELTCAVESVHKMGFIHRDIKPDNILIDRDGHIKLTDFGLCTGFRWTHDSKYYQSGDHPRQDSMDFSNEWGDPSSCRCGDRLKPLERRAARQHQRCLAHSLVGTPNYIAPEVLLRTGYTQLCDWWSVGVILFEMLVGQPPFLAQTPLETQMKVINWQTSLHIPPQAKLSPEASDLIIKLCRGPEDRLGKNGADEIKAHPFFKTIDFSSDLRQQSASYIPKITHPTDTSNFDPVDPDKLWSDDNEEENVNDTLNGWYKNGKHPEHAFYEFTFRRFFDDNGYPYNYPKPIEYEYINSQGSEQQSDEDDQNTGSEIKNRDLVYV
LATS1, sequence (Q7L9L4 whole entry partner, looked up): as the sequence (Q7L9L4 whole entry partner, the tested form may be a part) above
Human LATS1 kinase domain protein, sequence (O95835 whole entry, looked up, the tested form may be a part): as the sequence (O95835 whole entry, looked up) above
Human LATS1 kinase domain protein, sequence (Q7L9L4 whole entry partner, looked up, the tested form may be a part): as the sequence (Q7L9L4 whole entry partner, the tested form may be a part) above

SMILES	IC50 [1] [nM]	IC50 [2] [nM]	IC50 (LATS1) [nM]	conjunctivalization (keratin-19) in transplanted eye (rabbit corneal surface)	corneal epithelium regeneration (keratin-12) in transplanted eye (rabbit corneal surface)	EC50 [3] [nM]	differentiation of expanded LSCs into corneal epithelium cells (keratin 12) (limbal stem cells (LSCs))	IC50 [4] [nM]	IC50 [5] [nM]	EC50 [6] [nM]
CC(C)(O)COCC(C)(C)Nc1nc(-c2ccncc2)nc2cnccc12 [Example 12, 2-methyl-1-(2-methyl-2-{[2-(pyridin-4-yl)pyrido[3,4-d]pyrimidin-4-yl]amino}propoxy)propan-2-ol]	2900	1150	4	prevented conjunctivalization by keratin-19-positive conjunctival cells	lead to regeneration of a keratin-12-positive corneal epithelium	1750	can differentiate into corneal epithelium cells	15	–	–
CC1CNCCN1c1cc(-c2ccncc2)nc2cnccc12 (stereo not drawn) [Example 303, 4-(2-methylpiperazin-1-yl)-2-(pyridin-4-yl)-1,7-naphthyridine]	> 10000	–	–	–	–	–	–	–	10.2	> 20000
CC(C)(Nc1nc(-c2ccncc2)nc2cnccc12)C(F)(F)F [Example 58, 2-(pyridin-4-yl)-N-(1,1,1-trifluoro-2-methylpropan-2-yl)pyrido[3,4-d]pyrimidin-4-amine]	600	185	1	–	–	302	–	170	–	840
C[C@H](N(C)c1nc(-c2ccncc2)nc2cnccc12)C(F)(F)F [Example 48a, N-methyl-2-(pyridin-4-yl)-N-[(2S)-1,1,1-trifluoropropan-2-yl]pyrido[3,4-d]pyrimidin-4-amine]	–	–	–	–	–	–	–	–	–	260
